27 molecules from patent US10717730B1, “Dihydroisoquinoline compound” (SUZHOU ARK BIOPHARMACEUTICAL CO., LTD., priority 2017, dated 2020) can be followed below.

As usually defined, the IC50 is the midpoint of a concentration-inhibition curve. High values mean weaker potency in that assay, low ones greater potency in that assay.

In this assay the test system is HBsAg. The experiment in a line: HBsAg assay (secreted HBsAg by CLIA in HepG2.2.15 cells). Format: cell-based, hepatitis B virus (HBV). Particulars: Hepatitis B virus, HepG2.2.15, 96 h. How it is done: HepG2.2.15 cells (Sells et al, Proc Natl Acad Sci USA. 1987 February; 84(4):1005-9), a constitutively HBV-expressing cell line, were cultured in DMEM medium supplemented with 10% FBS and 400 μg/mL G418, and maintained in 5% CO2 at 37° C.
HepG2.2.15 cells were seeded into 96-well plates at 3×10^4 cells/well. The next day, the cells were treated with a five-fold serial dilution series of the compound in DMSO. The final DMSO concentration in all wells was 0.5% and 0.5% DMSO was used as no drug control. After four days of incubation with compounds, the supernatants were harvested and measured for HBsAg concentration
The HBsAg chemiluminescence immunoassay (CLIA) kit was used to measure the levels of secreted HBsAg. Specifically, 50 μL of culture supernatant was transferred to the CLIA assay plate and 50 μL of enzyme conjugate reagent was added into each well. The plates were sealed and incubated for 1 hour at room temperature. The supernatant-enzyme-mixture was discarded and wells were washed for 6 times. The residual liquid was removed by plating on tissue paper. 25 μL of substrate A and B were added into each well. Luminance was measured using a spectrometer (Tecan Infinite® F200) after 10 minutes incubation. IC50 value was extrapolated based the dose-response curves generated from the data.

Regarding `COc1cc2c(cc1-c1ccc(C)nc1)CC(C(C)C)n1cc(C(=O)O)c(=O)cc1-2` (stereo not drawn) [Example 7, 6-isopropyl-10-methoxy-9-(6-methylpyridin-3-yl)-2-oxo-6,7-dihydro-2H-pyrido[2,1-a]isoquinoline-3-carboxylic acid], the IC50 stood at 36 nM.
Then `CCOC(=O)c1cn2c(cc1=O)-c1cc(OC)c(-c3ccc(C)nc3)cc1CC2C(C)(C)C` (stereo not drawn) [Example 55, Ethyl 6-(tert-butyl)-10-methoxy-9-(6-methylpyridin-3-yl)-2-oxo-6,7-dihydro-2H-pyrido[2,1-a]isoquinoline-3-carboxylate], with 0.8 nM; and `COc1cc2c(cc1-c1cnc(NCC(=O)O)nc1)CC(C(C)(C)C)n1cc(C(=O)O)c(=O)cc1-2` (stereo not drawn) [Example 78, 6-(tert-butyl)-9-(2-((carboxymethyl)amino)pyrimidin-5-yl)-10-methoxy-2-oxo-6,7-dihydro-2H-pyrido[2,1-a]isoquinoline-3-carboxylic acid], with 45 nM.
In turn, `COc1cc2c(cc1-c1cn[nH]c1)CC(C(C)C)n1cc(C(=O)O)c(=O)cc1-2` (stereo not drawn) [Example 1, 6-isopropyl-10-methoxy-2-oxo-9-(1H-pyrazol-4-yl)-6,7-dihydro-2H-pyrido[2,1-a]isoquinoline-3-carboxylic acid] gave an IC50 of 14 nM.
`COc1cc2c(cc1-c1cnc(F)cc1C)CC(C(C)(C)C)n1cc(C(=O)O)c(=O)cc1-2` (stereo not drawn) [Example 48, 6-(tert-butyl)-9-(6-fluoro-4-methylpyridin-3-yl)-10-methoxy-2-oxo-6,7-dihydro-2H-pyrido[2,1-a]isoquinoline-3-carboxylic acid] gave an IC50 of 68 nM.
As to `COc1cc2c(cc1-c1ccc(NC(C)=O)nc1)CC(C(C)(C)C)n1cc(C(=O)O)c(=O)cc1-2` (stereo not drawn) [Example 57, 9-(6-acetamidopyridin-3-yl)-6-(tert-butyl)-10-methoxy-2-oxo-6,7-dihydro-2H-pyrido[2,1-a]isoquinoline-3-carboxylic acid], 1 nM corresponded to half-maximal inhibition (IC50).
On to `COc1cc2c(cc1-c1cnn(CC(F)(F)F)c1)CC(C(C)C)n1cc(C(=O)O)c(=O)cc1-2` (stereo not drawn) [Example 2, 6-isopropyl-10-methoxy-2-oxo-9-(1-(2,2,2-trifluoroethyl)-1H-pyrazol-4-yl)-6,7-dihydro-2H-pyrido[2,1-a]isoquinoline-3-carboxylic acid], for which the midpoint of inhibition, the IC50, lay at 8 nM.
Molecule `COc1cc2c(cc1-c1ccnc(C)c1)CC(C(C)(C)C)n1cc(C(=O)O)c(=O)cc1-2` (stereo not drawn) [Example 38, 6-(tert-butyl)-10-methoxy-9-(2-methylpyridin-4-yl)-2-oxo-6,7-dihydro-2H-pyrido[2,1-a]isoquinoline-3-carboxylic acid] gave an IC50 of 5 nM.
On to `COc1cc2c(cc1-c1ccc(NC3CCC3)nc1)CC(C(C)(C)C)n1cc(C(=O)O)c(=O)cc1-2` (stereo not drawn) [Example 56, 6-(tert-butyl)-9-(6-(cyclobutylamino)pyridin-3-yl)-10-methoxy-2-oxo-6,7-dihydro-2H-pyrido[2,1-a]isoquinoline-3-carboxylic acid], for which the IC50 is 1 nM.
Consider `COc1cc2c(cc1-c1cnn(CC(C)C)c1)CC(C(C)C)n1cc(C(=O)O)c(=O)cc1-2` (stereo not drawn) [Example 5, 9-(1-isobutyl-1H-pyrazol-4-yl)-6-isopropyl-10-methoxy-2-oxo-6,7-dihydro-2H-pyrido[2,1-a]isoquinoline-3-carboxylic acid], for which the half-maximal inhibitory concentration (IC50) is 14 nM.
`COc1ccc(-c2cc3c(cc2OC)-c2cc(=O)c(C(=O)O)cn2C(C(C)(C)C)C3)cc1` (stereo not drawn) [Example 35, 6-(tert-butyl)-10-methoxy-9-(4-methoxyphenyl)-2-oxo-6,7-dihydro-2H-pyrido[2,1-a]isoquinoline-3-carboxylic acid] returned an IC50 of 290 nM.
The molecule `COc1cc2c(cc1-c1cnn(C(F)F)c1)CC(C(C)(C)C)n1cc(C(=O)O)c(=O)cc1-2` (stereo not drawn) [Example 14, 6-(tert-butyl)-9-(1-(difluoromethyl)-1H-pyrazol-4-yl)-10-methoxy-2-oxo-6,7-dihydro-2H-pyrido[2,1-a]isoquinoline-3-carboxylic acid] displayed an IC50 of 2 nM.
`COc1cc2c(cc1-c1ccc(N3CCN(C(C)=O)CC3)nc1)CC(C(C)(C)C)n1cc(C(=O)O)c(=O)cc1-2` (stereo not drawn) [Example 46, 9-(6-(4-acetylpiperazin-1-yl)pyridin-3-yl)-6-(tert-butyl)-10-methoxy-2-oxo-6,7-dihydro-2H-pyrido[2,1-a]isoquinoline-3-carboxylic acid] showed an IC50 of 3 nM.
As to `COc1cc2c(cc1-c1cn[nH]c1)CC(C(C)(C)C)n1cc(C(=O)O)c(=O)cc1-2` (stereo not drawn) [Example 8, 6-(tert-butyl)-10-methoxy-2-oxo-9-(1H-pyrazol-4-yl)-6,7-dihydro-2H-pyrido[2,1-a]isoquinoline-3-carboxylic acid], the concentration for half-maximal inhibition (IC50) came out at 9 nM.
The molecule `COc1cc2c(cc1-c1nc[nH]n1)CC(C(C)(C)C)n1cc(C(=O)O)c(=O)cc1-2` (stereo not drawn) [Example 29, 6-(tert-butyl)-10-methoxy-2-oxo-9-(1H-1,2,4-triazol-3-yl)-6,7-dihydro-2H-pyrido[2,1-a]isoquinoline-3-carboxylic acid] registered an IC50 of 12 nM.
Then `COc1cc2c(cc1-c1ccc(NCC3CC3)nc1)CC(C(C)(C)C)n1cc(C(=O)O)c(=O)cc1-2` (stereo not drawn) [Example 52, 6-(tert-butyl)-9-(6-(cyclopropylmethylamino)pyridin-3-yl)-10-methoxy-2-oxo-6,7-dihydro-2H-pyrido[2,1-a]isoquinoline-3-carboxylic acid], with 12 nM.
On to `COc1cc2c(cc1-c1ccc(N(C)C)nc1)CC(C(C)(C)C)n1cc(C(=O)O)c(=O)cc1-2` (stereo not drawn) [Example 43, 6-(tert-butyl)-9-(6-(dimethylamino)pyridin-3-yl)-10-methoxy-2-oxo-6,7-dihydro-2H-pyrido[2,1-a]isoquinoline-3-carboxylic acid], for which the IC50 turned out to be 1 nM.
`COc1cc2c(cc1-c1cnn(C(C)C(=O)O)c1)CC(C(C)(C)C)n1cc(C(=O)O)c(=O)cc1-2` (stereo not drawn) [Example 26, 6-(tert-butyl)-9-(1-(1-carboxyethyl)-1H-pyrazol-4-yl)-10-methoxy-2-oxo-6,7-dihydro-2H-pyrido[2,1-a]isoquinoline-3-carboxylic acid] displayed an IC50 of 8 nM.
Then `COc1cc2c(cc1-c1cnn(CCN3CCOCC3)c1)CC(C(C)(C)C)n1cc(C(=O)O)c(=O)cc1-2` (stereo not drawn) [Example 16, 6-(tert-butyl)-10-methoxy-9-(1-(2-morpholinylethyl)-1H-pyrazol-4-yl)-2-oxo-6,7-dihydro-2H-pyrido[2,1-a]isoquinoline-3-carboxylaic acid], with 2 nM.
With `CCOC(=O)CCn1cc(-c2cc3c(cc2OC)-c2cc(=O)c(C(=O)O)cn2C(C(C)(C)C)C3)cn1` (stereo not drawn) [Example 23, 6-(tert-butyl)-9-(1-(3-ethoxy-3-oxopropyl)-1H-pyrazol-4-yl)-10-methoxy-2-oxo-6,7-dihydro-2H-pyrido[2,1-a]isoquinoline-3-carboxylic acid], inhibition was half-maximal at 40 nM (IC50).
The molecule `COc1cccc(-c2cc3c(cc2OC)-c2cc(=O)c(C(=O)O)cn2C(C(C)(C)C)C3)c1` (stereo not drawn) [Example 36, 6-(tert-butyl)-10-methoxy-9-(3-methoxyphenyl)-2-oxo-6,7-dihydro-2H-pyrido[2,1-a]isoquinoline-3-carboxylic acid] gave an IC50 of 10 nM.
Consider `COc1cc2c(cc1-c1cnn(CC(C)O)c1)CC(C(C)(C)C)n1cc(C(=O)O)c(=O)cc1-2` (stereo not drawn) [Example 12, 6-(tert-butyl)-9-(1-(2-hydroxypropyl)-1H-pyrazol-4-yl)-10-methoxy-2-oxo-6,7-dihydro-2H-pyrido[2,1-a]isoquinoline-3-carboxylic acid], for which the half-inhibitory concentration (IC50) was found to be 2 nM.
For the molecule `CCCn1cc(-c2cc3c(cc2OC)-c2cc(=O)c(C(=O)O)cn2C(C(C)C)C3)cn1` (stereo not drawn) [Example 6, 6-isopropyl-10-methoxy-2-oxo-9-(1-propyl-1H-pyrazol-4-yl)-6,7-dihydro-2H-pyrido[2,1-a]isoquinoline-3-carboxylic acid], it took 6 nM to reach half-maximal inhibition (IC50).
For `COc1cc2c(cc1-c1cnc(N3CCCC3)nc1)CC(C(C)(C)C)n1cc(C(=O)O)c(=O)cc1-2` (stereo not drawn) [Example 59, 6-(tert-butyl)-10-methoxy-2-oxo-9-(2-(pyrrolidin-1-yl)pyrimidin-5-yl)-6,7-dihydro-2H-pyrido[2,1-a]isoquinoline-3-carboxylic acid], the IC50 came to 10 nM.
As for `COc1cc2c(cc1-c1cnc(N3CCC3)cc1C)CC(C(C)(C)C)n1cc(C(=O)O)c(=O)cc1-2` (stereo not drawn) [Example 53, 9-(6-(azetidin-1-yl)-4-methylpyridin-3-yl)-6-(tert-butyl)-10-methoxy-2-oxo-6,7-dihydro-2H-pyrido[2,1-a]isoquinoline-3-carboxylic acid], the figure is 1400 nM; as for `COc1cc2c(cc1-c1cnc(N)nc1)CC(C(C)(C)C)n1cc(C(=O)O)c(=O)cc1-2` (stereo not drawn) [Example 65, 9-(2-aminopyrimidin-5-yl)-6-(tert-butyl)-10-methoxy-2-oxo-6,7-dihydro-2H-pyrido[2,1-a]isoquinoline-3-carboxylic acid], 80 nM.
Molecule `COc1cc2c(cc1-c1cnc(NC3CC3)nc1)CC(C(C)(C)C)n1cc(C(=O)O)c(=O)cc1-2` (stereo not drawn) [Example 64, 6-(tert-butyl)-9-(2-(cyclopropylamino)pyrimidin-5-yl)-10-methoxy-2-oxo-6,7-dihydro-2H-pyrido[2,1-a]isoquinoline-3-carboxylic acid] returned a 50% inhibitory concentration (IC50) of 7 nM.
